Patent US6956040B2, “Oxazolidinone piperazinyl derivatives as potential antimicrobials” (Ranbaxy Laboratories Limited, priority 2001, dated 2005)
Values after ≈ are worked out from the molar mass of the structure shown.

How the values were obtained:
Assay in all cases: MIC, agar incorporation method
[1] = test system: S. pneum 6303; type: cell-based, Streptococcus pneumoniae; conditions: S. pneum 6303; agar incorporation
Source text: (§1) The compounds of the invention display antibacterial activity when tested by the agar incorporation method. The following minimum inhibitory concentrations (μg/ml) were obtained for representative compounds of the invention which are given below in the following tables.
(§2) • 1) S.aureus ATCC 25923—Staphylococus aureus ATCC 25923 • 2) MRSA 15187—Methicillin Resistant Staphylococcus aureus • 3) Ent. faecalis ATCC 29212—Enterococcus faecalis ATCC 29212 • 4) Ent. faecium 6A—Enterococcus faecium 6A Van®, Cipro® • 5) Strep. pne. ATCC 6303—Streptococcus pneumoniae ATCC 6303 • 6) Strep. pyog. ATCC 19615—Streptococcus pyogenes • 7) S. epidermidis—Staphylococcus epidermidis ATCC 12228
(§3) Briefly, the compounds were dissolved in DMSO and doubling dilution of the compounds were incorporated into Meuller Hilton agar before solidification. Inoculum was prepared by suspending 4 to 5 colonies into 5 ml of normal saline solution and adjusting the turbidity to 0.5 Macfarland turbidity standard tables (1.5×10^8 CFU/ml), after appropriate dilutions, 10^4 CFU/spot was transfered into the surface of dried plate and incubated for 18 hours (24 hours for MRSN studies). The concentration showing no growth of the inoculated culture was recorded as the MIC. Appropriate ATCC standard strains were simultaneously tested and result recorded only when the MIC's against standard antibiotics were within the acceptable range.

[2] = test system: E. faecalis 29212; type: cell-based, Enterococcus faecalis; conditions: E. faecalis 29212; agar incorporation
Source text: as §1, §2, §3

[3] = test system: S. pneum AB 34; type: cell-based, Streptococcus pneumoniae; conditions: S. pneum AB 34; agar incorporation
Procedure: as §1, §3

[4] = test system: VRE 6A; type: cell-based, Enterococcus faecium; conditions: VRE 6A; agar incorporation
Source text: as §1, §2, §3

[5] = test system: MRSA 15187; type: cell-based, Staphylococcus aureus; conditions: MRSA 15187; agar incorporation
Source text: as §1, §2, §3

[6] = test system: S. aureus 25923; type: cell-based, Staphylococcus aureus; conditions: S. aureus 25923; agar incorporation
Source text: as §1, §2, §3

[7] = test system: MRSA 33; type: cell-based, Staphylococcus aureus; conditions: MRSA 33; agar incorporation
Procedure: as §1, §3

[8] = test system: S. pyogenes 19615; type: cell-based, Streptococcus pyogenes; conditions: S. pyogenes 19615; agar incorporation
Source text: as §1, §2, §3

[9] = test system: MRSA 562; type: cell-based, Staphylococcus aureus; conditions: MRSA 562; agar incorporation; Table 1
Procedure: as §1, §3

| Structure (SMILES) | MIC [1] [µg/mL] | MIC [2] [µg/mL] | MIC [3] [µg/mL] | MIC [4] [µg/mL] | MIC [5] [µg/mL] | MIC [6] [µg/mL] | MIC [7] [µg/mL] | MIC [8] [µg/mL] | MIC [9] [µg/mL] |
| --- | --- | --- | --- | --- | --- | --- | --- | --- | --- |
| CC(=O)NC[C@H]1CN(c2ccc(N3C[C@@H]4[C@H](C3)[C@H]4N(C)C(=O)c3ccc(Br)o3)c(F)c2)C(=O)O1 [Compound No. 33, (S)-N-[[3-[3-Fluoro[4-[3-(1α,5α,6α)-6-[N-(5-bromo-2-furoyl)-N-methyl]amino]-3-azabicyclo-[3.1.0]hexane]phenyl]-2-oxo-5-oxazolidinyl]methyl]acetamide] | 8 (≈ 14.9 µM) | 4 (≈ 7.47 µM) | 4 (≈ 7.47 µM) | 4 (≈ 7.47 µM) | 4 (≈ 7.47 µM) | 4 (≈ 7.47 µM) | 4 (≈ 7.47 µM) | 0.5 (≈ 0.934 µM) | – |
| CC(=O)NC[C@H]1CN(c2ccc(N3CCN(Cc4ccc([N+](=O)[O-])s4)CC3)c(F)c2)C(=O)O1 [Compound No. 23, (S)-N[[3-[3-Fluoro-4-[N-1[4-{2-thienyl(5-nitro)methyl}]piperazinyl]phenyl]2-oxo-5-oxazolidinyl]methyl]acetamide] | 8 (≈ 16.8 µM) | 8 (≈ 16.8 µM) | 8 (≈ 16.8 µM) | 8 (≈ 16.8 µM) | 8 (≈ 16.8 µM) | 8 (≈ 16.8 µM) | 8 (≈ 16.8 µM) | 1 (≈ 2.09 µM) | – |
| CC(=O)NC[C@H]1CN(c2ccc(N3CCN(Cc4ccc(C=NN)o4)CC3)c(F)c2)C(=O)O1 [Compound No. 62, (S)-N-[[3-[3-Fluoro-4[N-1-[4-{2-furyl-(5-hydrazone)-methyl}]-piperazinyl]-phenyl]-2-oxo-5-oxazolidinyl]-methyl]acetamide] | 8 (≈ 17.4 µM) | 8 (≈ 17.4 µM) | 8 (≈ 17.4 µM) | 8 (≈ 17.4 µM) | 2 (≈ 4.36 µM) | 2 (≈ 4.36 µM) | 2 (≈ 4.36 µM) | 8 (≈ 17.4 µM) | 1 (≈ 2.18 µM) |
| CC(=O)NC[C@H]1CN(c2ccc(N3CCC(N(C)Cc4ccc([N+](=O)[O-])s4)CC3)c(F)c2)C(=O)O1 [Compound No. 51, (S)-N-[[3-[4-[4-(N-methyl-N-2-thienyl(5-nitro)methyl)-aminopiperidine-1-yl]-3-fluorophenyl]-2oxo-oxazolidin-5-yl]methyl]acetamide] | – | 4 (≈ 7.91 µM) | 2 (≈ 3.96 µM) | 4 (≈ 7.91 µM) | 1 (≈ 1.98 µM) | 2 (≈ 3.96 µM) | 1 (≈ 1.98 µM) | 0.5 (≈ 0.989 µM) | 1 (≈ 1.98 µM) |
| CC(=O)NC[C@H]1CN(c2ccc(N3CC4C(C3)C4N(C)Cc3ccc(C=O)o3)c(F)c2)C(=O)O1 (stereo partly drawn) [Compound No. 72, (S)-N-[[3-[3-Fluoro[4-[3-(1α,5α,6α)-6-[N-(5-formyl-2-furylmethyl)-N-methyl]amino]-3-azabicyclo-[3.1.0]hexane]phenyl]-2-oxo-5-oxazolidinyl]methyl]acetamide] | 4 (≈ 8.5 µM) | 8 (≈ 17 µM) | 4 (≈ 8.5 µM) | 8 (≈ 17 µM) | 4 (≈ 8.5 µM) | 8 (≈ 17 µM) | 4 (≈ 8.5 µM) | 0.25 (≈ 0.531 µM) | – |
| CC(=O)NC[C@H]1CN(c2ccc(N3CC4C(C3)C4N(C)C(=O)c3ccsc3)c(F)c2)C(=O)O1 (stereo partly drawn) [Compound No. 73, (S)-N-[[3-[3-Fluoro[4-[3-(1α,5α,6α)-6-[N-(3-thienoyl)-N-methyl]amino]-3-azabicyclo-[3.1.0]hexane]phenyl]-2-oxo-5-oxazolidinyl]methyl]acetamide] | 4 (≈ 8.46 µM) | 8 (≈ 16.9 µM) | 8 (≈ 16.9 µM) | 8 (≈ 16.9 µM) | 8 (≈ 16.9 µM) | 8 (≈ 16.9 µM) | 8 (≈ 16.9 µM) | 1 (≈ 2.12 µM) | – |
| CC(=O)NC[C@H]1CN(c2ccc(N3CCN(Cc4ccc(C=NO)o4)CC3)c(F)c2)C(=O)O1 [Compound No. 60, (S)-N-[[3-[3-Fluoro-4-[N-1-[4-(2-furyl-(5-aldoxime)methyl}]piperazinyl]phenyl]-2-oxo-5-oxazolidinyl]methyl]acetamide] | 8 (≈ 17.4 µM) | 8 (≈ 17.4 µM) | 8 (≈ 17.4 µM) | 16 (≈ 34.8 µM) | 2 (≈ 4.35 µM) | 2 (≈ 4.35 µM) | 2 (≈ 4.35 µM) | 4 (≈ 8.71 µM) | – |
| CC(=O)NC[C@H]1CN(c2ccc(N3CCN(Cc4ccc([N+](=O)[O-])o4)CC3)c(F)c2)C(=O)O1.O=C(O)CC(O)(CC(=O)O)C(=O)O [Compound No. 17] | 2 | 2 | 1 | 4 | 2 | 2 | 2 | 1 | – |
| CC(=O)NC[C@H]1CN(c2ccc(N3CCN(C(=O)c4ccco4)CC3)c(F)c2)C(=O)O1 [Compound No. 01, (S)-N-[[3-[3-Fluoro-4-[N-1-[4-(2-furoyl)piperazinyl]]-phenyl]-2-oxo-5-oxazolidinyl]methyl]acetamide] | 2 (≈ 4.65 µM) | 2 (≈ 4.65 µM) | 1 (≈ 2.32 µM) | 2 (≈ 4.65 µM) | 2 (≈ 4.65 µM) | 2 (≈ 4.65 µM) | 4 (≈ 9.29 µM) | 1 (≈ 2.32 µM) | – |
| COC(=O)Cc1ccc(NC(=O)ON=Cc2ccc(CN3CCN(c4ccc(N5C[C@H](CNC(C)=O)OC5=O)cc4F)CC3)o2)cc1 [Compound No. 61] | 8 (≈ 12.3 µM) | 8 (≈ 12.3 µM) | 8 (≈ 12.3 µM) | 8 (≈ 12.3 µM) | 8 (≈ 12.3 µM) | 8 (≈ 12.3 µM) | 8 (≈ 12.3 µM) | 8 (≈ 12.3 µM) | – |
| CC(=O)NC[C@H]1CN(c2ccc(N3CCN(Cc4ccc(Cl)s4)CC3)c(F)c2)C(=O)O1 [Compound No. 10, (S)-N[[3-[3-Fluoro-4-[N-1[4-{2-thienyl(5-chloro)methyl}]-piperazinyl]phenyl]2-oxo-5-oxazolidinyl]methyl]acetamide] | 4 (≈ 8.57 µM) | 8 (≈ 17.1 µM) | 8 (≈ 17.1 µM) | 4 (≈ 8.57 µM) | 4 (≈ 8.57 µM) | 8 (≈ 17.1 µM) | 4 (≈ 8.57 µM) | 1 (≈ 2.14 µM) | – |
| CC(=O)NC[C@H]1CN(c2ccc(N3CCN(C(=O)c4ccc(CCl)o4)CC3)c(F)c2)C(=O)O1 [Compound No. 05, (S)-N-[[3-Fluoro-4-[N-1[4-(5-chloromethyl-2-furoyl)piperazinyl]phenyl]-2-oxo-5-oxazolidinyl]methyl]acetamide] | 4 (≈ 8.35 µM) | 8 (≈ 16.7 µM) | 4 (≈ 8.35 µM) | 8 (≈ 16.7 µM) | 4 (≈ 8.35 µM) | 16 (≈ 33.4 µM) | 4 (≈ 8.35 µM) | 4 (≈ 8.35 µM) | – |
| CC(=O)NC[C@H]1CN(c2ccc(N3CC4C(C3)C4N(C)C(=O)c3ccoc3)c(F)c2)C(=O)O1 (stereo partly drawn) [Compound No. 32, (S)-N-[[3-[3-Fluoro[4-[3-(1α, 5α, 6α)-6-[N-(3-furoyl)-N-methyl]amino]-3-azabicyclo-[3.1.0]hexane]phenyl]-2-oxo-5-oxazolidinyl]methyl]acetamide] | 4 (≈ 8.76 µM) | 8 (≈ 17.5 µM) | 4 (≈ 8.76 µM) | 8 (≈ 17.5 µM) | 8 (≈ 17.5 µM) | 8 (≈ 17.5 µM) | 8 (≈ 17.5 µM) | 1 (≈ 2.19 µM) | – |
